ChEMBL document CHEMBL1201862, “PubChem BioAssay data set” (2004)
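Where inhibition never reached the appropriate level, the endpoint shown equals the highest concentration tested. Otherwise, values were interpolated linearly from a five-concentration, 48-hour dose response in 96-well plates. Here, GI50 denotes the concentration required for 50% inhibition of growth.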 Activity calls are given as the source filed them. No stated cut-off is given here; in the data, active = GI50 up to about 1.1 µM and inactive = higher.

What was measured:
Assay in all cases: NCI-60 cell line screen, 48 h
SNB-78 = system: SNB-78
UACC-257 = system: UACC-257
MOLT-4 = system: MOLT-4
786-0 = system: 786-0
M14 = system: M14
NCI-H522 = system: NCI-H522
KM12 = system: KM12
ACHN = system: ACHN
NCI-H226 = system: NCI-H226
SF-539 = system: SF-539
TK-10 = system: TK-10
OVCAR-8 = system: OVCAR-8
LXFL 529 = system: LXFL 529
UACC-62 = system: UACC-62
OVCAR-5 = system: OVCAR-5
U-251 = system: U-251
SK-MEL-28 = system: SK-MEL-28
SK-OV-3 = system: SK-OV-3
SNB-75 = system: SNB-75
M19-MEL = system: M19-MEL
K562 = system: K562
HCT-15 = system: HCT-15
HL-60 = system: HL-60
NCI-H23 = system: NCI-H23
CCRF-CEM = system: CCRF-CEM
RXF 631 = system: RXF 631
XF498 = system: XF498
SW-620 = system: SW-620
SNB-19 = system: SNB-19
SF-295 = system: SF-295
COLO 205 = system: COLO 205
SK-MEL-5 = system: SK-MEL-5
Malme-3M = system: Malme-3M
NCI-H460 = system: NCI-H460
HCT-116 = system: HCT-116
DMS-114 = system: DMS-114
A498 = system: A498
DLD-1 = system: DLD-1
SN12C = system: SN12C
DMS-273 = system: DMS-273
UO-31 = system: UO-31
SR = system: SR
A549 = system: A549
EKVX = system: EKVX
SF-268 = system: SF-268
OVCAR-4 = system: OVCAR-4
HOP-62 = system: HOP-62
HCC 2998 = system: HCC 2998
OVCAR-3 = system: OVCAR-3
HT-29 = system: HT-29
KM-20L2 = system: KM-20L2
LOX IMVI = system: LOX IMVI
IGROV-1 = system: IGROV-1
RXF 393 = system: RXF 393
HOP-92 = system: HOP-92
RPMI-8226 = system: RPMI-8226
SK-MEL-2 = system: SK-MEL-2
CAKI-1 = system: CAKI-1
HOP-18 = system: HOP-18

CSc1ccc2c(cc1=O)C(NC(=O)c1ccc(C#N)cc1)CCc1cc(O)c(O)c(O)c1-2 (configuration not stated)
GI50 (SNB-78): 5.58 µM (inactive) | GI50 (UACC-257): 12.2 µM (inactive) | GI50 (MOLT-4): 22.5 µM (inactive) | GI50 (786-0): 37.2 µM (inactive) | GI50 (M14): 30 µM (inactive) | GI50 (NCI-H522): 15.7 µM (inactive) | GI50 (KM12): 33.7 µM (inactive) | GI50 (ACHN): > 100 µM (inactive) | GI50 (NCI-H226): 26.2 µM (inactive) | GI50 (SF-539): 15.5 µM (inactive) | GI50 (TK-10): 63 µM (inactive) | GI50 (OVCAR-8): 30.5 µM (inactive) | GI50 (LXFL 529): 19.8 µM (inactive) | GI50 (UACC-62): 19.3 µM (inactive) | GI50 (OVCAR-5): > 100 µM (inactive) | GI50 (U-251): 19.5 µM (inactive) | GI50 (SK-MEL-28): > 100 µM (inactive) | GI50 (SK-OV-3): 27.4 µM (inactive) | GI50 (SNB-75): 4.2 µM (inactive) | GI50 (M19-MEL): 11.9 µM (inactive) | GI50 (K562): 7.26 µM (inactive) | GI50 (HCT-15): 19 µM | GI50 (HL-60): 20.1 µM (inactive) | GI50 (NCI-H23): 27.6 µM (inactive) | GI50 (CCRF-CEM): 9.66 µM (inactive) | GI50 (RXF 631): 49.8 µM (inactive) | GI50 (XF498): 26.8 µM (inactive) | GI50 (SW-620): 19.5 µM (inactive) | GI50 (SNB-19): 41.9 µM (inactive) | GI50 (SF-295): 27.2 µM (inactive) | GI50 (COLO 205): 19.6 µM (inactive) | GI50 (SK-MEL-5): 15.4 µM (inactive) | GI50 (Malme-3M): > 100 µM (inactive) | GI50 (NCI-H460): 27.6 µM (inactive) | GI50 (HCT-116): 18.4 µM (inactive) | GI50 (DMS-114): 14.8 µM (inactive) | GI50 (A498): 44.5 µM (inactive) | GI50 (DLD-1): 23.1 µM (inactive) | GI50 (SN12C): 19.8 µM (inactive) | GI50 (DMS-273): 34.9 µM (inactive) | GI50 (UO-31): 75.9 µM (inactive) | GI50 (SR): 11.7 µM (inactive) | GI50 (A549): 44.4 µM (inactive) | GI50 (EKVX): 22.4 µM (inactive) | GI50 (SF-268): 43.4 µM (inactive) | GI50 (OVCAR-4): 12.1 µM (inactive) | GI50 (HOP-62): > 100 µM (inactive) | GI50 (HCC 2998): 21.8 µM (inactive) | GI50 (OVCAR-3): 36.6 µM (inactive) | GI50 (HT-29): 29 µM (inactive) | GI50 (KM-20L2): 24.7 µM (inactive)

CCOc1ccc(/C=C\c2cc(OC)c(OC)c(OC)c2)cc1
GI50 (SNB-78): 0.000745 µM (active) | GI50 (UACC-257): 0.01 µM (active) | GI50 (MOLT-4): 0.000634 µM (active) | GI50 (LOX IMVI): 0.000291 µM (active) | GI50 (786-0): 0.000216 µM (active) | GI50 (M14): 0.01 µM (active) | GI50 (NCI-H522): < 0.0001 µM (active) | GI50 (KM12): 0.00703 µM (active) | GI50 (ACHN): 0.01 µM (active) | GI50 (NCI-H226): 0.00218 µM (active) | GI50 (SF-539): 0.000102 µM (active) | GI50 (TK-10): 29.6 µM (inactive) | GI50 (OVCAR-8): 0.000456 µM (active) | GI50 (LXFL 529): < 0.0001 µM (active) | GI50 (UACC-62): 0.01 µM (active) | GI50 (OVCAR-5): 22.1 µM (inactive) | GI50 (U-251): 0.000172 µM (active) | GI50 (SK-MEL-28): 0.000235 µM (active) | GI50 (IGROV-1): 0.2 µM (active) | GI50 (SNB-75): < 0.0001 µM (active) | GI50 (M19-MEL): 0.0191 µM (active) | GI50 (K562): < 0.0001 µM (active) | GI50 (HCT-15): 0.027 µM | GI50 (RXF 393): < 0.0001 µM (active) | GI50 (HL-60): < 0.0001 µM (active) | GI50 (NCI-H23): 0.027 µM (active) | GI50 (CCRF-CEM): 0.01 µM (active) | GI50 (RXF 631): 0.367 µM (active) | GI50 (XF498): 0.000453 µM (active) | GI50 (SW-620): < 0.0001 µM (active) | GI50 (SNB-19): 0.000165 µM (active) | GI50 (SF-295): < 0.0001 µM (active) | GI50 (COLO 205): 0.0127 µM (active) | GI50 (SK-MEL-5): 0.012 µM (active) | GI50 (Malme-3M): 0.00139 µM (active) | GI50 (NCI-H460): 0.000674 µM (active) | GI50 (HCT-116): 0.00033 µM (active) | GI50 (HOP-92): 0.000828 µM (active) | GI50 (DMS-114): 0.00118 µM (active) | GI50 (A498): 0.00124 µM (active) | GI50 (DLD-1): 0.0194 µM (active) | GI50 (SN12C): 0.00129 µM (active) | GI50 (DMS-273): 0.0153 µM (active) | GI50 (RPMI-8226): 0.000443 µM (active) | GI50 (SK-MEL-2): 0.00378 µM (active) | GI50 (UO-31): 0.00041 µM (active) | GI50 (SR): 0.000931 µM (active) | GI50 (CAKI-1): 0.01 µM (active) | GI50 (A549): 0.0006 µM (active) | GI50 (EKVX): 0.735 µM (active) | GI50 (SF-268): 0.000625 µM (active) | GI50 (OVCAR-4): 0.114 µM (active) | GI50 (HOP-62): 0.000964 µM (active) | GI50 (HCC 2998): 0.0685 µM (active) | GI50 (OVCAR-3): 0.000303 µM (active) | GI50 (HT-29): 0.000131 µM (active) | GI50 (KM-20L2): 0.000241 µM (active)

CCc1cc2c(Nc3ccccc3)c3c(nc2s1)CCCC3
GI50 (SNB-78): 28.9 µM (inactive) | GI50 (UACC-257): > 100 µM (inactive) | GI50 (MOLT-4): 3.23 µM (inactive) | GI50 (LOX IMVI): 11.4 µM (inactive) | GI50 (786-0): 29.2 µM (inactive) | GI50 (M14): > 100 µM (inactive) | GI50 (KM12): > 100 µM (inactive) | GI50 (ACHN): 94.2 µM (inactive) | GI50 (SF-539): 43 µM (inactive) | GI50 (TK-10): > 100 µM (inactive) | GI50 (OVCAR-8): > 100 µM (inactive) | GI50 (LXFL 529): 14.2 µM (inactive) | GI50 (UACC-62): 15.3 µM (inactive) | GI50 (OVCAR-5): > 100 µM (inactive) | GI50 (U-251): 22 µM (inactive) | GI50 (SK-MEL-28): > 100 µM (inactive) | GI50 (SK-OV-3): > 100 µM (inactive) | GI50 (IGROV-1): > 100 µM (inactive) | GI50 (SNB-75): 7.46 µM (inactive) | GI50 (M19-MEL): 40.7 µM (inactive) | GI50 (K562): 3.41 µM (inactive) | GI50 (HCT-15): 38.8 µM | GI50 (RXF 393): 22.4 µM (inactive) | GI50 (HL-60): 6.05 µM (inactive) | GI50 (CCRF-CEM): 20.9 µM (inactive) | GI50 (RXF 631): 35.2 µM (inactive) | GI50 (HOP-18): > 100 µM (inactive) | GI50 (XF498): 13.4 µM (inactive) | GI50 (SW-620): 80.5 µM (inactive) | GI50 (SNB-19): > 100 µM (inactive) | GI50 (SF-295): 28.8 µM (inactive) | GI50 (COLO 205): > 100 µM (inactive) | GI50 (SK-MEL-5): 4.79 µM (inactive) | GI50 (Malme-3M): > 100 µM (inactive) | GI50 (NCI-H460): > 100 µM (inactive) | GI50 (HCT-116): 9.35 µM (inactive) | GI50 (HOP-92): 16.7 µM (inactive) | GI50 (DMS-114): 27.5 µM (inactive) | GI50 (A498): 25.8 µM (inactive) | GI50 (DLD-1): 19.4 µM (inactive) | GI50 (SN12C): > 100 µM (inactive) | GI50 (DMS-273): > 100 µM (inactive) | GI50 (RPMI-8226): 3.71 µM (inactive) | GI50 (SK-MEL-2): > 100 µM (inactive) | GI50 (UO-31): 3.99 µM (inactive) | GI50 (SR): 5.3 µM (inactive) | GI50 (A549): 8.53 µM (inactive) | GI50 (EKVX): > 100 µM (inactive) | GI50 (SF-268): 76.6 µM (inactive) | GI50 (OVCAR-4): 24 µM (inactive) | GI50 (HOP-62): 79.4 µM (inactive) | GI50 (HCC 2998): > 100 µM (inactive) | GI50 (OVCAR-3): 6.56 µM (inactive) | GI50 (KM-20L2): > 100 µM (inactive)
